From ChEMBL document CHEMBL1154498, “Clinical stage EGFR inhibitors irreversibly alkylate Bmx kinase” (Bioorg Med Chem Lett, 2008)

Assays:
[1] = molecular target: T1, Tyrosine-protein kinase JAK3 (Homo sapiens, UniProt P52333); assay: Inhibition of JAK3
T1 sequence (P52333 whole entry): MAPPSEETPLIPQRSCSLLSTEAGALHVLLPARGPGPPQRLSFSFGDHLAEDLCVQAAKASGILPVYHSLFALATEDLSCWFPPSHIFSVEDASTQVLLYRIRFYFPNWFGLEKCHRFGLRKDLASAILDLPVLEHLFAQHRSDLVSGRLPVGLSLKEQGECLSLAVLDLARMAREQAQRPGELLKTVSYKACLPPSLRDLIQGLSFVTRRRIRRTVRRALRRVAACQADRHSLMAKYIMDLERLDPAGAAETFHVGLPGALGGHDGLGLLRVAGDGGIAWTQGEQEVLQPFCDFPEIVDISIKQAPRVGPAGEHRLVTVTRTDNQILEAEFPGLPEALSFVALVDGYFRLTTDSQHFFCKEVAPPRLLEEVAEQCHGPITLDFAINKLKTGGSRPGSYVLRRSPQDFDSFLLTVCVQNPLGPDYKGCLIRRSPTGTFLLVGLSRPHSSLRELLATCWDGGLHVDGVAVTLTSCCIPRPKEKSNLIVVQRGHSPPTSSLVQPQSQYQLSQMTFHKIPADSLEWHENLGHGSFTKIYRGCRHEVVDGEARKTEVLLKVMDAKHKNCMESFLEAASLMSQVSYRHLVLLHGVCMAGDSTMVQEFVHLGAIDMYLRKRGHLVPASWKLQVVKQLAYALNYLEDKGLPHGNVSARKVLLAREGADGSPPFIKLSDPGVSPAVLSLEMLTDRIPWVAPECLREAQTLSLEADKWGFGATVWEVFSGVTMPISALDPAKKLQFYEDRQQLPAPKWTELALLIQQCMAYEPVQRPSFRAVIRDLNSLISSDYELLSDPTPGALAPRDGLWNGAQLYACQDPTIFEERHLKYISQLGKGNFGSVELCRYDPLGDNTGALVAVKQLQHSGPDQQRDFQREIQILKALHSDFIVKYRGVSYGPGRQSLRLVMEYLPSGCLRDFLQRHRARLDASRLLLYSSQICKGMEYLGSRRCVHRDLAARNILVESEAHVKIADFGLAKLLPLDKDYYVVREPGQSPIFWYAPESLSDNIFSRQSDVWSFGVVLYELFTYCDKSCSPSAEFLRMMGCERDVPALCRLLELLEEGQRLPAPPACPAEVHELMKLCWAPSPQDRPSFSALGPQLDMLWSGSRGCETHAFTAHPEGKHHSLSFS

[2] = molecular target: Receptor tyrosine-protein kinase erbB-2 (Homo sapiens, UniProt P04626); assay: Inhibition of HER2
Chain of Receptor tyrosine-protein kinase erbB-2 (P04626 whole entry): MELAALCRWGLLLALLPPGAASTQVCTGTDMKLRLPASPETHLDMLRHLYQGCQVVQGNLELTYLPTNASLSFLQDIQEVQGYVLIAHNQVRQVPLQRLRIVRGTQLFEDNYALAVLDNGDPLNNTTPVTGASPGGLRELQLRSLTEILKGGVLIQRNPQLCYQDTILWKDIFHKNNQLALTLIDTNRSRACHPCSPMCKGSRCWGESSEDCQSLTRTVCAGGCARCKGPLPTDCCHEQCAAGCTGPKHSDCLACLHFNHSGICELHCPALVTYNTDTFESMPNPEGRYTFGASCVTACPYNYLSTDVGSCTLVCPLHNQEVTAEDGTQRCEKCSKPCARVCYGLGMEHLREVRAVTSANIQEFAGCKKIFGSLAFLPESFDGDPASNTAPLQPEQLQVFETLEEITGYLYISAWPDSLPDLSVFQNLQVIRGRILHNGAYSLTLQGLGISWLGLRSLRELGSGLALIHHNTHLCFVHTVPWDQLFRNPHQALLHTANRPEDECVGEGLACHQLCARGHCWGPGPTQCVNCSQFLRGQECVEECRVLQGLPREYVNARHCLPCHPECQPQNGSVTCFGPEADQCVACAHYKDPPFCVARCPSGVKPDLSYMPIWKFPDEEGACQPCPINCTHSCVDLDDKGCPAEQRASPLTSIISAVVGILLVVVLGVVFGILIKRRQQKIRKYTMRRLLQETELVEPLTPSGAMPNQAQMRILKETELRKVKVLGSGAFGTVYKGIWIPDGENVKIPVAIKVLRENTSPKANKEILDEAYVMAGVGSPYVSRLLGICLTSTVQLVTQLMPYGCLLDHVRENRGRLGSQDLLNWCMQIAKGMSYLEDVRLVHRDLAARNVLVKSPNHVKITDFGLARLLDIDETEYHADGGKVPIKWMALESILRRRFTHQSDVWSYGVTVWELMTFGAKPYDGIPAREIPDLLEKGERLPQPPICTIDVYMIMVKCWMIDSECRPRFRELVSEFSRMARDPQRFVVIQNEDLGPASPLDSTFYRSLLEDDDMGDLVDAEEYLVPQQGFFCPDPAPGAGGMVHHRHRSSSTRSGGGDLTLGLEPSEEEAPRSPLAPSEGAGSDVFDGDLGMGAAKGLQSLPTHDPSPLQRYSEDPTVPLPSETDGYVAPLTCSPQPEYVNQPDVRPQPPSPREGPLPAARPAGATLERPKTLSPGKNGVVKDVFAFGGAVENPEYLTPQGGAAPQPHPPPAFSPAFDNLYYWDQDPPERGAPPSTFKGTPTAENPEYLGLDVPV

[3] = molecular target: Tyrosine-protein kinase Blk (Homo sapiens, UniProt P51451); assay: Inhibition of Blk
Chain of Tyrosine-protein kinase Blk (P51451 whole entry): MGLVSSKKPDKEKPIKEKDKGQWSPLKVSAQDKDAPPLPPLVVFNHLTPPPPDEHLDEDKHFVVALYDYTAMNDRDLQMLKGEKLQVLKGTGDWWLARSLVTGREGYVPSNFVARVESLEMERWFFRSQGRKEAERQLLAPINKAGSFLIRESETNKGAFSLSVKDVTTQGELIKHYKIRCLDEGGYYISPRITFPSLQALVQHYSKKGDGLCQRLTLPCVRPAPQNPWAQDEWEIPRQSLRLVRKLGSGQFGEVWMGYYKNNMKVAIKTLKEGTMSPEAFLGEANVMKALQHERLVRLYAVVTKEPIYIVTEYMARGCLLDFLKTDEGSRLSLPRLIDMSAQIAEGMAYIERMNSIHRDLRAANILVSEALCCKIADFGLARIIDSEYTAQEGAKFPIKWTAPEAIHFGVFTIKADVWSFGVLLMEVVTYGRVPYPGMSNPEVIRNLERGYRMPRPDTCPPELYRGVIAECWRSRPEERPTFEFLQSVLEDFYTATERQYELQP

[4] = molecular target: T2, Tyrosine-protein kinase ITK/TSK (Homo sapiens, UniProt Q08881); assay: Inhibition of Itk
T2 sequence (Q08881 whole entry): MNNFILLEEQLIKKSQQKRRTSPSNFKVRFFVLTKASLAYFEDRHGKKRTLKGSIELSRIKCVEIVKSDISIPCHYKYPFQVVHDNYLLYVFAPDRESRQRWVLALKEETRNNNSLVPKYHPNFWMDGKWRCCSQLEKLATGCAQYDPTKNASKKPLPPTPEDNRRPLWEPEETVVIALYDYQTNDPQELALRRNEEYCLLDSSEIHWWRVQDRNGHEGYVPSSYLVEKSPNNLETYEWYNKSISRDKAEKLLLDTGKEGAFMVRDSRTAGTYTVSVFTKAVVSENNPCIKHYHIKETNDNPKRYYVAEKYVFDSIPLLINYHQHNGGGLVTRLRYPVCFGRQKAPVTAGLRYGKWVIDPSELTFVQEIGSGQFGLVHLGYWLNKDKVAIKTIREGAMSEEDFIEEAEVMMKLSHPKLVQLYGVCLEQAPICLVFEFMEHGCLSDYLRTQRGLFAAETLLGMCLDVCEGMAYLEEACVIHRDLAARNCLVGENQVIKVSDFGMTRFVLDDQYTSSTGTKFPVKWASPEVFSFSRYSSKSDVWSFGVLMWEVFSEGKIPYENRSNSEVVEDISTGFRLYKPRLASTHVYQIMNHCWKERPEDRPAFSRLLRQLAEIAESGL

[5] = molecular target: Tyrosine-protein kinase BTK (Homo sapiens, UniProt Q06187); assay: Inhibition of Btk
Chain of Tyrosine-protein kinase BTK (Q06187 whole entry): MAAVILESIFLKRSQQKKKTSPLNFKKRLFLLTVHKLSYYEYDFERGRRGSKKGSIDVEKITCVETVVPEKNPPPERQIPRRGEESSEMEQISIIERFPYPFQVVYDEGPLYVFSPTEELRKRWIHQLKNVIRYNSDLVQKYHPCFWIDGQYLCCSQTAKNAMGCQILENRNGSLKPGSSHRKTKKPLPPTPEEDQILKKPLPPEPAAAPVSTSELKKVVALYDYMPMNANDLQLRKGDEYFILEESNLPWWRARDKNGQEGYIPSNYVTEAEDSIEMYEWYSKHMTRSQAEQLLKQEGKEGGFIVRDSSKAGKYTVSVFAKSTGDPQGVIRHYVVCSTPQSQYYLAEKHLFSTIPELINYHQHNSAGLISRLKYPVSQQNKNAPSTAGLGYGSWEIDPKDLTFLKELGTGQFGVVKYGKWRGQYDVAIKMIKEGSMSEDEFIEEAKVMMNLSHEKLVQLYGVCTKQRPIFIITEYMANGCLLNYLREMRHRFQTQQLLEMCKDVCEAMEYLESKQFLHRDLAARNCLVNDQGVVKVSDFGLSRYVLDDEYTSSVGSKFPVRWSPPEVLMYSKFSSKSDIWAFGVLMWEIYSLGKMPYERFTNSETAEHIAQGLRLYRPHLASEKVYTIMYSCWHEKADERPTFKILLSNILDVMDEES

[6] = molecular target: Receptor tyrosine-protein kinase erbB-4 (Homo sapiens, UniProt Q15303); assay: Inhibition of HER4
Chain of Receptor tyrosine-protein kinase erbB-4 (Q15303 whole entry): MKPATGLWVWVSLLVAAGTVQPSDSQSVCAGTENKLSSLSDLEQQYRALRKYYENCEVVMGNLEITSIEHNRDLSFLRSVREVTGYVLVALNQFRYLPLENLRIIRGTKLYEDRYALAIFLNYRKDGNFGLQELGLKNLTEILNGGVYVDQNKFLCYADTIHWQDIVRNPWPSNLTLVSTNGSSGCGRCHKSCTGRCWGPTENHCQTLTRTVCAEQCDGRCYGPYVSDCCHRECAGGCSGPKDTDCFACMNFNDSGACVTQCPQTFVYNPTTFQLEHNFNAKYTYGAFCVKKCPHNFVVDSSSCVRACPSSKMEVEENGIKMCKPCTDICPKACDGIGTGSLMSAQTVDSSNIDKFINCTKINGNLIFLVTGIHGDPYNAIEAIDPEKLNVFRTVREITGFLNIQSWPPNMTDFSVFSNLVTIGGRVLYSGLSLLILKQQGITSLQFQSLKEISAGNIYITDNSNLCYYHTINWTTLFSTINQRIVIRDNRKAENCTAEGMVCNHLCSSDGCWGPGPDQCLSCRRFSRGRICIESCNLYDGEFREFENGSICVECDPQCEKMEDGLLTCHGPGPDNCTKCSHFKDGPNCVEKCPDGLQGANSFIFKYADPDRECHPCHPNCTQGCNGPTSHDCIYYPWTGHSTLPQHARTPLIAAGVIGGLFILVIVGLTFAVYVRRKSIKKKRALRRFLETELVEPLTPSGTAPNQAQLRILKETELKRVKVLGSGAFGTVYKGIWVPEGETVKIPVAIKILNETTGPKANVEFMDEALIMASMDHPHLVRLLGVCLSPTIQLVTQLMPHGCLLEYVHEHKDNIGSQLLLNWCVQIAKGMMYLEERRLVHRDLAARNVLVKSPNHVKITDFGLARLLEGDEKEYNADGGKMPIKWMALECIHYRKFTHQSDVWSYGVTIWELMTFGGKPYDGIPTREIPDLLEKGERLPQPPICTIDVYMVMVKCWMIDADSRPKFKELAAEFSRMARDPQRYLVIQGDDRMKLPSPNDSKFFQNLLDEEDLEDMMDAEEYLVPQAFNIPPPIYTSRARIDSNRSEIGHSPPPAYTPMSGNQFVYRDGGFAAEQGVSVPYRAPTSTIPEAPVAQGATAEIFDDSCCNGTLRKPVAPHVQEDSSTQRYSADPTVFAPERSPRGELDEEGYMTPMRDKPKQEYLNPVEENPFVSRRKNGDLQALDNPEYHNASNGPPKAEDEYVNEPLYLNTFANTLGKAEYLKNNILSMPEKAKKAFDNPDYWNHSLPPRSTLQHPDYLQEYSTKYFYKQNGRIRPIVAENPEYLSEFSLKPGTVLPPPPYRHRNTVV

[7] = molecular target: T3, Serine/threonine-protein kinase STK11 (Homo sapiens, UniProt Q15831); assay: Inhibition of Lkb1
T3 sequence (Q15831 whole entry): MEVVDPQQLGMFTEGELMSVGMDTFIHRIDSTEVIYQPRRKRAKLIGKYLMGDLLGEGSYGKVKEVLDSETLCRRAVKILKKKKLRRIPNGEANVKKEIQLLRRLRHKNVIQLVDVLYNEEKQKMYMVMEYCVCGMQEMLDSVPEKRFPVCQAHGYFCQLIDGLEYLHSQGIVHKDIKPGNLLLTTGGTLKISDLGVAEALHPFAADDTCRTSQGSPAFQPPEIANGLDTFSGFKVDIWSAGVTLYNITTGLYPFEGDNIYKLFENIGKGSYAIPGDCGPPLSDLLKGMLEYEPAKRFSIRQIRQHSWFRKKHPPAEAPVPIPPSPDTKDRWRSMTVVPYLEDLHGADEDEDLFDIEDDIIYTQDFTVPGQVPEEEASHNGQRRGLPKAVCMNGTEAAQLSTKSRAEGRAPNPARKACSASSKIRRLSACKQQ

Row | IC50 [1] [µM] | IC50 [2] [µM] | IC50 [3] [µM] | IC50 [4] [µM] | IC50 [5] [µM] | IC50 [6] [µM] | IC50 [7] [µM] | SMILES
1 | 3.14 | 0.024 | 5.47 | > 30 | 5.83 | 0.012 | > 10 | C=CC(=O)Nc1ccc2ncnc(Nc3cccc(Br)c3)c2c1
2 | – | – | – | – | 0.185 | – | – | C=CC(=O)Nc1cc2c(Nc3ccc(F)c(Cl)c3)ncnc2cc1OCCCN1CCOCC1 [CANERTINIB]
